Several values for one entry are separate records, joined by “and”; a condition that tells them apart may be missing. Equal entries are not always repeated. Where two headings read alike, the source gives them in different places.
Tests used:
[1] = test system: pediatric patients being treated with platinum based chemotherapeutics
Source text: Reference is made to International Patent Application Publication No. WO 2019/108592, which is a continuation of U.S. patent application Ser. No. 15/826,243, filed on Nov. 29, 2017, both of which are incorporated by reference herein in their entirety.

[2] = animals
[3] = test system: small cell lung cancer cell cultures; details: cited from earlier work
[4] = for Cisplatin Concentration: 24° C.
Protocol: The method uses a Waters Acquity H-Class HPLC system with an Imtakt Scherzo SW-C18 mixed mode column. The HPLC method conditions are outlined in Table 7. […] This range covers greater than two orders of magnitude at dose-relevant concentrations.
Each sample was transferred to an HPLC vial and placed in an autosampler chamber held at 24° C. Samples were injected onto the HPLC system approximately every 30 minutes to obtain 4 time-points for each sample. A gradient was run and the retention time and peak area were obtained.

[5] = cited from earlier work
[6] = test system: pediatric patients being treated with a platinum based chemotherapeutic
Source text: These adverse events comprise grade 3 or grade 4 neutropenia, reduced glomerular filtration rates, increased serum creatinine, infection, hypomagnesemia, hypernatremia, vomiting, or nausea.

[7] = Dynamic vapor sorption (DVS) isotherm; details: for DVS weight loss upon desorption: hysteresis observed
[8] = Source text: It is a white to off-white crystalline solid, that is soluble in water, but insoluble in alcohol. The aqueous solution is practically neutral with a pH ranging from 6.5 to 9.0. The molecular formula is Na2S2O3. It has a molecular weight of 158.11 g/mol. The structural formula is: […]
[9] = thiosulfate:cisplatin 5:1 (n = 2)
[10] = thiosulfate:cisplatin 6:1 (n = 2)
[11] = thiosulfate:cisplatin 10:1 (n = 2)

Sodium thiosulfate [STS]
ototoxicity in pediatric patients ([1]; STS after a platinum based chemotherapeutic (e.g., cisplatin)): significantly reduced ototoxicity | hearing protection ([1]; dose equivalent to 5.1 g/m^2 sodium thiosulfate for injection, preliminary clinical studies): did not show hearing protection | prevention of ototoxicity ([1]; doses equivalent to 6.4 to 12.8 g/m^2 sodium thiosulfate for injection): prevented ototoxicity | survival ([1]; treatment 6 hours after completion of each CIS infusion): did not affect survival | distribution to the cochlea [2]: distribute to the cochlea | effect of STS on cytotoxicity of etoposide ([3]; immediate or delayed addition of STS, incubation for 72 hours): no reduction of cytotoxicity | effect of STS on anti-tumor activity of doxorubicin, carmustine (BCNU), paclitaxel, or methotrexate ([3]; similar studies): no reduction of anti-tumor activity | Half-life (time to reach 333/2 μM cisplatin) [4, 9]: 3.3 h | Slope (linear regression of cisplatin conc. vs. time) [4, 9]: −0.80 Cisplatin Area/min | Cisplatin Concentration ([4]; thiosulfate:cisplatin 5:1, 4 min): 323.7 µM | Cisplatin Concentration ([4]; thiosulfate:cisplatin 5:1, 37 min): 294.2 µM and 294.0 µM | Cisplatin Concentration ([4]; thiosulfate:cisplatin 5:1, 70 min): 266.8 µM and 268.0 µM | Cisplatin Concentration ([4]; thiosulfate:cisplatin 5:1, 103 min): 243.7 µM and 245.3 µM | Half-life (time to reach 333/2 μM cisplatin) [4, 10]: 3.07 h | Slope (linear regression of cisplatin conc. vs. time) [4, 10]: −0.87 Cisplatin Area/min | Cisplatin Concentration ([4]; thiosulfate:cisplatin 6:1, 5 min): 325.4 µM and 324.5 µM | Cisplatin Concentration ([4]; thiosulfate:cisplatin 6:1, 38 min): 286.4 µM and 293.2 µM | Cisplatin Concentration ([4]; thiosulfate:cisplatin 6:1, 71 min): 259.8 µM and 266.2 µM | Cisplatin Concentration ([4]; thiosulfate:cisplatin 6:1, 104 min): 235.6 µM and 240.5 µM | Half-life (time to reach 333/2 μM cisplatin) [4, 11]: 2.27 h | Slope (linear regression of cisplatin conc. vs. time) [4, 11]: −1.13 Cisplatin Area/min | Cisplatin Concentration ([4]; thiosulfate:cisplatin 10:1, 4 min): 319.5 µM | Cisplatin Concentration ([4]; thiosulfate:cisplatin 10:1, 5 min): 320.3 µM | Cisplatin Concentration ([4]; thiosulfate:cisplatin 10:1, 37 min): 269.4 µM | Cisplatin Concentration ([4]; thiosulfate:cisplatin 10:1, 38 min): 278.5 µM | Cisplatin Concentration ([4]; thiosulfate:cisplatin 10:1, 70 min): 235.2 µM | Cisplatin Concentration ([4]; thiosulfate:cisplatin 10:1, 71 min): 239.6 µM | Cisplatin Concentration ([4]; thiosulfate:cisplatin 10:1, 103 min): 205.6 µM | Cisplatin Concentration ([4]; thiosulfate:cisplatin 10:1, 104 min): 209.3 µM | biological half-life, range ([5]; dependent on dose): 16.5-182 minutes | biological half-life ([5]; following IV administration): 0.65 hours | excreted in the urine unmodified ([5]; following IV administration): Up to 95% | serum sodium levels ([6]; doses of STS equivalent to 12.8 g/m^2 sodium thiosulfate for injection): small, transient increase | renal or other toxicities ([6]; pediatric patients treated with a platinum based chemotherapeutic): not exacerbate renal or other toxicities

O.O.O.O.O.O=S([O-])([O-])=S.[Na+].[Na+] [sodium thiosulfate pentahydrate]
DVS weight loss upon desorption [7]: 51% | DVS weight loss upon drying ([7]; drying): 27% | DVS weight gain upon sorption [7]: 81%

O=S([O-])([O-])=S.[Na+].[Na+] [anhydrous sodium thiosulfate, Sodium thiosulfate anhydrous]
DVS weight change upon equilibration to 0% relative humidity ([7]; 0% relative humidity): minimal weight change | DVS weight loss upon desorption [7]: 51% | DVS weight gain upon sorption [7]: 165% | solubility in alcohol ([8]; alcohol): insoluble | solubility in water ([8]; water): soluble

— patent US20200023003A1 (FENNEC PHARMACEUTICALS INC., priority 2018, published 2020)
